Assay results: US11266655B2, “Methods and compositions for treating urea cycle disorders” (Camp4 Therapeutics Corporation, priority 2019, dated 2022)

Columns and labels:
[1] = tested on: CPS1; assay: RNA-seq of compound-treated primary human hepatocytes, CPS1 expression; type: cell-based; conditions: for Relative CPS1 level vs Untreated (±Standard Deviation): primary human hepatocytes, triplicate (Table 20, FIG. 12)
[2] = tested on: OTC; assay: RNA-seq of compound-treated primary human hepatocytes, OTC expression; type: cell-based; conditions: for Relative OTC level vs Untreated (±Standard Deviation): primary human hepatocytes, triplicate (Table 14)
[3] = tested on: ASS1; assay: RNA-seq of compound-treated primary human hepatocytes, ASS1 expression; type: cell-based; conditions: 10 uM, primary human hepatocytes, triplicate (Table 15, FIG. 8)
[4] = tested on: ASL; assay: RNA-seq of compound-treated primary human hepatocytes, ASL expression; type: cell-based; conditions: for Relative ASL level vs Untreated (±Standard Deviation): primary human hepatocytes, triplicate (Table 25, FIG. 17)
[5] = tested on: ARG1; assay: RNA-seq of compound-treated primary human hepatocytes, ARG1 expression; type: cell-based; conditions: for Relative ARGI level vs Untreated (±Standard Deviation): primary human hepatocytes
[6] = tested on: OTC; assay: OTC expression modulated by compounds, OTC/GeoMean of housekeeping genes, DMSO = 1 (Table 3A); type: cell-based, human; conditions: 10 uM final concentration
[7] = tested on: OTC; assay: siRNA SMARTpool transfection of primary human hepatocytes, OTC qPCR (Table 3B); type: cell-based; conditions: siRNA 10 nM, 48 hrs, vs non-targeting siRNA
Procedure: Primary human hepatocytes were reversed transfected with 6 pmol siRNA using RNAiMAX Reagent (ThermoFisher Cat No13778030) in 24 well format, 1 ul per well (for a final cone of 10 nM). The following morning, the medium was removed and replaced with Modified Maintenance Medium (see above) for an additional 24 hrs. The entire treatment lasted 48 hrs, at which point the medium was removed and replaced with RLT Buffer for RNA extraction (Qiagen RNeasy 96 QIAcube HT Kit Cat #74171). siRNAs were obtained from Dharmacon and are a pool of four siRNA duplex all designed to target distinct sites within the specific gene of interest (known as “SMARTpool”). They were tested against the control non-targeting siRNA D-001206-13-05.
Isolated RNA was processed for cDNA synthesis and qPCR as described above. Taqman assay used for OTC measurement: Hs00166892_ml

[8] = tested on: OTC; assay: siRNA knockdown of JAK/STAT/IRF genes in hepatocytes, OTC mRNA; type: cell-based, human; conditions: 10 nM siRNA plus 0.03 nM JAK1 siRNA, FIG. 27C
Source text: To confirm that JAK1 inhibition is necessary for OTC and CPS1 gene expression increase, JAK1, JAK2, and JAK3 expression was knocked down using the siRNA methods previously described in Example 1 (JAK1 siRNA Dharmacon #M-003145-02-0005; JAK2 siRNA Dharmacon #M-003146-02-0005; JAK3 siRNA Dharmacon #M-003147-01-0005). The cells were harvest for mRNA collection and quantification as previously described.
In addition, STAT5B is a JAK1 signal transducer and transcription factor activated by JAK1. STAT5B was knocked down in hepatocytes using siRNA (Dharmacon cat #M-010539-02-0005) as previously described in Example 1. The cells were harvest for mRNA collection and quantification as previously described.
To confirm the role of JAK1 and investigate the role of other signaling proteins and transcription factors in OTC and CPS1 expression, a panel of additional genes were knocked down with siRNA alone or in combination with JAK1. In particular, JAK2 was knockdown alone or in combination with JAK1. The combinations are shown in FIG. 26A and FIG. 26B. siRNA used to knock down JAK1 and JAK2 were: JAK1 siRNA Dharmacon #M-003145-02-0005; JAK2 siRNA Dharmacon #M-003146-02-0005. OTC and CPS1 mRNA expression was normalized to B2M. The assay was performed in triplicate in three donor hepatocyte cell lines: 371, 171, and 511A.
Cells were harvested after siRNA treatment for mRNA quantification. JAK1, OTC, and CPS1 mRNA levels were normalized to GUSB.

[9] = Example 11, relative mRNA vs DMSO

CN(c1ncccc1CNc1nc(Nc2ccc3c(c2)CC(=O)N3)ncc1C(F)(F)F)S(C)(=O)=O [PF-00562271]
Relative CPS1 level vs Untreated (±Standard Deviation) ([1]; 3 uM): 2.33 ± 0.58 | Relative CPS1 level vs Untreated (±Standard Deviation) ([1]; 10 uM): 4.70 ± 0.49 | increase in CPS1 gene expression (Tables 19, 20, FIG. 11, 12) [1, 9]: greatest increase | Relative OTC level vs Untreated (±Standard Deviation) ([2]; 3 uM): 3.27 ± 0.59 | Relative OTC level vs Untreated (±Standard Deviation) ([2]; 10 uM): 7.05 ± 1.14 | increase in OTC gene expression (Table 14, FIG. 6) [2, 9]: greatest increase | Relative ASS1 level vs Untreated (±Standard Deviation) [3]: 2.30 ± 0.41 | Relative ASL level vs Untreated (±Standard Deviation) ([4]; 3 uM): 2.09 ± 0.67 | Relative ASL level vs Untreated (±Standard Deviation) ([4]; 10 uM): 4.92 ± 1.05 | increase in ASL gene expression (Table 25, FIG. 17) [4, 9]: greatest increase | Relative ARGI level vs Untreated (±Standard Deviation) ([5]; 10 μM, triplicate (Table 17, FIG. 9)): 1.32 ± 0.33 | Relative ARGI level vs Untreated (±Standard Deviation) ([5]; 10 uM, triplicate (Table 18, FIG. 10)): 2.53 ± 0.36 | increase in ARG1 gene expression (Tables 17, 18, FIG. 9, 10) [5, 9]: greatest increase | Max Value (OTC/GeoMean of HKs; DMSO = 1) [6]: 3.3

IRF1 (DNA GAAAGTGAAAGT; siRNA; chemistry not given here; the letters are possibly those of the target site)
Max fold change in OTC [7]: 1.70 fold

STAT5A (DNA ATTTCTNAGAAA; target site or template, no part of the molecule; chemistry not given here)
OTC expression after knockdown in combination with JAK1 [8]: increased
